Test results reported in US20090311217A1, “3-SUBSTITUTED-1H-INDOLE COMPOUNDS, THEIR USE AS MTOR KINASE AND PI3 KINASE INHIBITORS, AND THEIR SYNTHESES” (priority 2008, published 2009).

Experiments:
Format in all cases: biochemical
[1] = biological target: PI3K-alpha (Homo sapiens, UniProt P42336); test: PI3K-alpha fluorescence polarization assay; settings: read-out: PI3Kα Avg. IC50
[2] = biological target: PI3K-gamma (Homo sapiens, UniProt P48736); test: PI3K-gamma fluorescence polarization assay; settings: PI3Kγ Avg. IC50
Summary of the method: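 Reactions in 5 mM HEPES pH 7, 2.5 mM MgCl2, 25 μM ATP with 2.5 μM diC8-PI(4,5)P2 and 5 ng enzyme, 1 h at 25° C, then EDTA quench. Product detected by FP using GST-GRP1 PH domain (100 nM) and BODIPY-TMR-IP4 tracer (5 nM); final DMSO 0.8%.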

[3] = biological target: T1, human TOR (Homo sapiens, UniProt P42345); test: mTOR enzyme assay (DELFIA, His6-S6K substrate); settings: read-out: mTOR Kinase Avg. IC50
T1 construct: FLAG

PI3K-alpha, sequence (P42336 whole entry, species assumed): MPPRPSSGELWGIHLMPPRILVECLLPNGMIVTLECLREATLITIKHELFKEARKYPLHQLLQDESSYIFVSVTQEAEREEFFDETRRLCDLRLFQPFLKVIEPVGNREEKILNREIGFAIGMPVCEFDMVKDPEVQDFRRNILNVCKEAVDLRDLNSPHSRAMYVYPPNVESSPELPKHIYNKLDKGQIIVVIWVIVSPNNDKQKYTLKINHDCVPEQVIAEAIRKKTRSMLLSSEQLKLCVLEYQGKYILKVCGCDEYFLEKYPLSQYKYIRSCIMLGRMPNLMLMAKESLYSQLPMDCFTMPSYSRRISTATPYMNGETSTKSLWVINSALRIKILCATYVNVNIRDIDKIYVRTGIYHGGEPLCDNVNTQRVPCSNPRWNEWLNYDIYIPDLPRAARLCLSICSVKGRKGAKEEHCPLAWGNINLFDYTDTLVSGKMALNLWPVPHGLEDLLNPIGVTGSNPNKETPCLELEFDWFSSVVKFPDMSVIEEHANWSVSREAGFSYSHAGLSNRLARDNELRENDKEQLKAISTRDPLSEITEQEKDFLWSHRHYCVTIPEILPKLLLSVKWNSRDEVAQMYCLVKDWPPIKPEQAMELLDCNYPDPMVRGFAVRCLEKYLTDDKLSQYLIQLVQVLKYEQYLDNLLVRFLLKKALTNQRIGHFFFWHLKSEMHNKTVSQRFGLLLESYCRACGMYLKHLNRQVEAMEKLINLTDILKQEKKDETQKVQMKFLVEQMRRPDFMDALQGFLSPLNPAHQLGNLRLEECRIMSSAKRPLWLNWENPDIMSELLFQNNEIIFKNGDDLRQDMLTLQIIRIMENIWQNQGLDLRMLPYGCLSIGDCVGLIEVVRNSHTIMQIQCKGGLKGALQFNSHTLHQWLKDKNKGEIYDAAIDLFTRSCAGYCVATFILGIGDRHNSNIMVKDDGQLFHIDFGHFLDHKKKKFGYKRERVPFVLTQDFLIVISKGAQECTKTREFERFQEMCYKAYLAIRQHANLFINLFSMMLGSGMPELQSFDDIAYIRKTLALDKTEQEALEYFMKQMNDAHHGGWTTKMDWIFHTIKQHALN
PI3K-alpha, sequence (P27986 whole entry partner, species assumed): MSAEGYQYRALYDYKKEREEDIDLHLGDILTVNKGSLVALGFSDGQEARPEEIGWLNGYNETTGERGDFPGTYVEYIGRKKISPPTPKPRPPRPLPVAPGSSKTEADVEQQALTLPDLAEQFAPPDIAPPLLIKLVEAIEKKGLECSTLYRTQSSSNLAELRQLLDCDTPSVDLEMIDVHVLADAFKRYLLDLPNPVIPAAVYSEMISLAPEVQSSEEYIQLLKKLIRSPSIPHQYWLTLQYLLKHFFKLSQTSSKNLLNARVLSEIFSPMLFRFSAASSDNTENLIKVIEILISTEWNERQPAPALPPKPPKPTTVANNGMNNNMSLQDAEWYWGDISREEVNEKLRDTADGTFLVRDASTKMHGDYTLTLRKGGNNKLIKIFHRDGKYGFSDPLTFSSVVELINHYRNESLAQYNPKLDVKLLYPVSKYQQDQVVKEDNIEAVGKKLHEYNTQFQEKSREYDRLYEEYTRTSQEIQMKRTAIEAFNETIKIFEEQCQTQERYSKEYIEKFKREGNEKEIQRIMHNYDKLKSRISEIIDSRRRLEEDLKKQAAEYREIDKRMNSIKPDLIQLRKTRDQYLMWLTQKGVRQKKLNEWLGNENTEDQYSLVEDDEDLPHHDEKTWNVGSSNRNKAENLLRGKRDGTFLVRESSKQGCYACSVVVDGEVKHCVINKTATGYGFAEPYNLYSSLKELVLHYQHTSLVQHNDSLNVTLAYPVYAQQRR
PI3K-gamma, sequence (P48736 whole entry, species assumed, the tested form may be a part): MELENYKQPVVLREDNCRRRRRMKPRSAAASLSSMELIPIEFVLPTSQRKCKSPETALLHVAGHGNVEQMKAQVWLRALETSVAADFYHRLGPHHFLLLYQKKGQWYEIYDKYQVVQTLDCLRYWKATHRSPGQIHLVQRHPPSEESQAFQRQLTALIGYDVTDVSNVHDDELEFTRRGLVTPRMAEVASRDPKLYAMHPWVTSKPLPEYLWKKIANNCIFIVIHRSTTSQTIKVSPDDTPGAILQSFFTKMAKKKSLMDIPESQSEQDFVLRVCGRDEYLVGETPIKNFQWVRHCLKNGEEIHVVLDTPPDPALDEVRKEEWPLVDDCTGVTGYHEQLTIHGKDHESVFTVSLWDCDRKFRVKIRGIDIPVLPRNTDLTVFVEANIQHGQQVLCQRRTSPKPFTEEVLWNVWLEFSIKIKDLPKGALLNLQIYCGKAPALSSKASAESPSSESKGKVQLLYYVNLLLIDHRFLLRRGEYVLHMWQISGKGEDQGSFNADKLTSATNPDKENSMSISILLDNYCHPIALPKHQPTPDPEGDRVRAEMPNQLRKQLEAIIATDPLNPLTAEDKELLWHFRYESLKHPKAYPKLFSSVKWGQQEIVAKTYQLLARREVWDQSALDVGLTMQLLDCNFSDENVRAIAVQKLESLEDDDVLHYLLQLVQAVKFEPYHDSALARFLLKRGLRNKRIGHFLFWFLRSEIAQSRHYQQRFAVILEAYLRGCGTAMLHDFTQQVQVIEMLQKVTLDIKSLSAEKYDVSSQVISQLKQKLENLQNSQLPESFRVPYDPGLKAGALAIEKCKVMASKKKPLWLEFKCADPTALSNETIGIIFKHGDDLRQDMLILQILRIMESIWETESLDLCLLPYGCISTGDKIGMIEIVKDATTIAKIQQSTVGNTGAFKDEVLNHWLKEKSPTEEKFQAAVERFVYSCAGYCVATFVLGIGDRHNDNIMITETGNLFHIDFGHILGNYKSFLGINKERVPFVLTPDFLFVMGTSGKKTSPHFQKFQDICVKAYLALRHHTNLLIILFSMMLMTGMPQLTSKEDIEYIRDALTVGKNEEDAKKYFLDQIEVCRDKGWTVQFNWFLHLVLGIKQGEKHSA

Compound	IC50 [1]	IC50 [2]	IC50 [3]
CCn1c(C)c(/C=C2\Oc3ccc(NC(=O)Nc4ccc(C(=O)NCCNC)cc4)cc3C2=O)c2cc(OC)ccc21 [Compound 659, 4-[({(2Z)-2-[(1-ethyl-5-methoxy-2-methyl-1H-indol-3-yl)methylene]-3-oxo-2,3-dihydro-1-benzofuran-5-yl}carbamoyl)amino]-N-[2-(methylamino)ethyl]benzamide]	0.3 nM	2.2 nM	15 nM
COc1ccc2[nH]c(-c3c(C)nn(C)c3C)c(/C=C3\Oc4ccc(NC(=O)Nc5ccc(C(=O)N6CCOCC6)cc5)cc4C3=O)c2c1 [Compound 690, 1-[(2Z)-2-{[5-methoxy-2-(1,3,5-trimethyl-1H-pyrazol-4-yl)-1H-indol-3-yl]methylidene}-3-oxo-2,3-dihydro-1-benzofuran-5-yl]-3-[4-(morpholin-4-ylcarbonyl)phenyl]urea]	0.2 nM	2.75 nM	4 nM
CNC(=O)Nc1ccc2c(c1)C(=O)/C(=C/c1c(-c3ccc(CN(C)C)cc3)[nH]c3ccc(OC)cc13)O2 [Compound 624, 1-{(2Z)-2-[(2-{4-[(dimethylamino)methyl]phenyl}-5-methoxy-1H-indol-3-yl)methylidene]-3-oxo-2,3-dihydro-1-benzofuran-5-yl}-3-methylurea]	2.1 nM	23 nM	57 nM
CNC(=O)Nc1ccc2c(c1)C(=O)/C(=C/c1c(-c3c(C)nn(C)c3C)[nH]c3c(C)cc(OC)cc13)O2 [Compound 726, 1-[(2Z)-2-{[5-methoxy-7-methyl-2-(1,3,5-trimethyl-1H-pyrazol-4-yl)-1H-indol-3-yl]methylidene}-3-oxo-2,3-dihydro-1-benzofuran-5-yl]-3-methylurea]	1.37 nM	13.7 nM	18 nM
O=C1C(=Cc2c[nH]c3cc(Br)ccc23)Oc2cc(O)cc(O)c21 [Example 143, 2-[(6-bromo-1H-indol-3-yl)methylene]-4,6-dihydroxy-1-benzofuran-3(2H)-one]	1850 nM	6660 nM	4450 nM
CCc1cccc2c(C=C3Oc4cc(O)cc(O)c4C3=O)cn(CCCC#N)c12 [Example 232, 4-{3-[(4,6-dihydroxy-3-oxo-1-benzofuran-2(3H)-ylidene)methyl]-7-ethyl-1H-indol-1-yl}butanenitrile]	610 nM	6000 nM	> 20000 nM
COc1ccc2c(c1)c(/C=C1\Oc3cc(O)ccc3C1=O)cn2CCCN(C)C [Example 324, (2Z)-2-({1-[3-(Dimethylamino)propyl]-5-methoxy-1H-indol-3-yl}methylene)-6-hydroxy-1-benzofuran-3(2H)-one]	91.5 nM	656 nM	365 nM
CNC(=O)Nc1ccc2c(c1)C(=O)/C(=C/c1c(-c3nc(C4CC4)no3)n(CCN3CCN(C)CC3)c3ccc(OC)cc13)O2 [Compound 626, 1-[(2Z)-2-({2-(3-cyclopropyl-1,2,4-oxadiazol-5-yl)-5-methoxy-1-[2-(4-methylpiperazin-1-yl)ethyl]-1H-indol-3-yl}methylidene)-3-oxo-2,3-dihydro-1-benzofuran-5-yl]-3-methylurea]	3 nM	470 nM	66 nM
CNC(=O)Nc1ccc2c(c1)C(=O)/C(=C/c1c(-c3c(C)nn(C)c3C)n(CCN(C)C)c3ccc(OC)cc13)O2 [Compound 673, 1-[(2Z)-2-({1-[2-(dimethylamino)ethyl]-5-methoxy-2-(1,3,5-trimethyl-1H-pyrazol-4-yl)-1H-indol-3-yl}methylidene)-3-oxo-2,3-dihydro-1-benzofuran-5-yl]-3-methylurea]	12.5 nM	61.5 nM	60 nM
CNC(=O)Nc1ccc2c(c1)C(=O)/C(=C/c1c(-c3nn(C)cc3C(F)(F)F)[nH]c3ccc(OC)cc13)O2 [Compound 724, 1-[(2Z)-2-({5-methoxy-2-[1-methyl-4-(trifluoromethyl)-1H-pyrazol-3-yl]-1H-indol-3-yl}methylidene)-3-oxo-2,3-dihydro-1-benzofuran-5-yl]-3-methylurea]	4.7 nM	30.7 nM	20 nM
COc1ccc2c(c1)c(/C=C1\Oc3cc(O)cc(O)c3C1=O)c(C(=O)N(C)C)n2CCN1CCC(O)CC1 [Example 311, 3-[(Z)-(4,6-Dihydroxy-3-oxo-1-benzofuran-2(3H)-ylidene)methyl]-1-[2-(4-hydroxypiperidin-1-yl)ethyl]-5-methoxy-N,N-dimethyl-1H-indole-2-carboxamide]	8 nM	144 nM	88.5 nM

Other lines, results leading:

IC50 [1]	IC50 [2]	IC50 [3]	Compound
281 nM	298 nM	84 nM	COc1ccc2c(c1)c(/C=C1\Oc3cc(O)cc(O)c3C1=O)c(C(=O)N(C)C)n2CC(=O)N(C)C [Example 325, 3-[(Z)-(4,6-Dihydroxy-3-oxo-1-benzofuran-2(3H)-ylidene)methyl]-1-[2-(dimethylamino)-2-oxoethyl]-5-methoxy-N,N-dimethyl-1H-indole-2-carboxamide]
114 nM	6870 nM	> 20000 nM	COc1ccc2c(c1)c(/C=C1\Oc3cc(O)c(Br)cc3C1=O)c(C)n2CCCN(C)C [Example 350, (2Z)-5-Bromo-2-({1-[3-(dimethylamino)propyl]-5-methoxy-2-methyl-1H-indol-3-yl}methylene)-6-hydroxy-1-benzofuran-3(2H)-one]
9530 nM	3030 nM	> 20000 nM	COc1ccc2c(c1)c(/C=C1\Oc3cc(-c4cnc(N)nc4)ccc3C1=O)cn2CCCN(C)C [Example 427, (2Z)-6-(2-Aminopyrimidin-5-yl)-2-({1-[3-(dimethylamino)propyl]-5-methoxy-1H-indol-3-yl}methylene)-1-benzofuran-3(2H)-one]
2760 nM	5260 nM	111 nM	CN(C)c1cccc(-c2cccc3c2c(/C=C2\Oc4cc(O)cc(O)c4C2=O)cn3C)c1 [Example 398, (2Z)-2-({4-[3-(Dimethylamino)phenyl]-1-methyl-1H-indol-3-yl}methylene)-4,6-dihydroxy-1-benzofuran-3(2H)-one]
> 10000 nM	> 10000 nM	> 19500 nM	Cn1cc(/C=C2\Oc3cccc(O)c3C2=O)c2c(-c3ccccc3)cccc21 [Example 400, (2Z)-4-Hydroxy-2-[(1-methyl-4-phenyl-1H-indol-3-yl)methylene]-1-benzofuran-3(2H)-one]
547 nM	448 nM	30 nM	Cn1cc(/C=C2\Oc3cc(O)cc(O)c3C2=O)c2c(-c3ccc(C(=O)N4CCCC4)cc3)cccc21 [Example 396, (2Z)-4,6-Dihydroxy-2-({1-methyl-4-[4-(pyrrolidin-1-ylcarbonyl)phenyl]-1H-indol-3-yl}methylene)-1-benzofuran-3(2H)-one]
35.5 nM	656 nM	2300 nM	COc1ccc2c(c1)c(/C=C1\Oc3cc(O)ccc3C1=O)c(C)n2CCN1CCCCCC1 [Example 470, (2Z)-2-{[1-(2-Azepan-1-ylethyl)-5-methoxy-2-methyl-1H-indol-3-yl]methylene}-6-hydroxy-1-benzofuran-3(2H)-one]
1440 nM	5420 nM	500 nM	Cn1cc(/C=C2\Oc3cc(O)cc(O)c3C2=O)c2c(-c3cccc(C#N)c3)cccc21 [Example 367, 3-{3-[(Z)-(4,6-Dihydroxy-3-oxo-1-benzofuran-2(3H)-ylidene)methyl]-1-methyl-1H-indol-4-yl}benzonitrile]
